Assays:
IRAK4 [1] = target: T1, IRAK4 (Homo sapiens, UniProt Q9NWZ3); assay: OCI-LY-10 MSD assay for IRAK4 DC50; format: cell-based; set-up: endogenous in cells; host or cells: OCI-LY10; settings: OCI-LY10 cells, 4 hr incubation, concentration required to degrade 50% of protein
T1 sequence (Q9NWZ3 1-460): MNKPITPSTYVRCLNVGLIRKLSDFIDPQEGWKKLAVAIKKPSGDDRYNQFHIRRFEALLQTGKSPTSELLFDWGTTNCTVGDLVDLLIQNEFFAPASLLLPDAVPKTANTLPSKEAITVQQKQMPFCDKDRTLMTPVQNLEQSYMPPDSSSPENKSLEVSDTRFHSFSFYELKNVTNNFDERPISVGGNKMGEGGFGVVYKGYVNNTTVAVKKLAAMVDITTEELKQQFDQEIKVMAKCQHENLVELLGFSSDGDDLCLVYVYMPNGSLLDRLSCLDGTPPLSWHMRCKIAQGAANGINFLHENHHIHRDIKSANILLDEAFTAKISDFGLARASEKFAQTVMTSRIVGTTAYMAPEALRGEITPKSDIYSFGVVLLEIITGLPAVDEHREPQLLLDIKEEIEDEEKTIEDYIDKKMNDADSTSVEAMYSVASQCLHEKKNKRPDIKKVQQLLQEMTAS
Procedure, shortened: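 OCI-Ly10 cells were exposed to compound for 4 hr across a 3-fold, 8-point dilution series. Lysates were made in RIPA buffer, and IRAK4 remaining was measured by MSD sandwich immunoassay with anti-IRAK4 capture and detection antibodies. DC50 was taken from a four-parameter logistic fit.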

IRAK4 [2] = target: T1, IRAK4; assay: OCI-LY-10 degradation assay (western blot, % IRAK4 degraded after 4 hours); format: cell-based; set-up: endogenous in cells; host or cells: OCI-LY10; settings: OCI-LY10 cells, 4 hours; for OCI-LY10 % IRAK4 Degradation (0.01 uM): 0.01 uM compound; for OCI-LY10 % IRAK4 Degradation (0.1 uM): 0.1 uM compound; for OCI-LY10 % IRAK4 Degradation (1 uM): 1 uM compound
Procedure, shortened: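 OCI-LY10 cells (RPMI-1640, 20% FBS, 55 μM 2-ME) treated with compound at 0.003-10 μM final for 4 h at 37° C, then lysed in RIPA buffer. IRAK4 level read by fluorescent western blot (20-25 μg protein) and binned as % degraded: A >50%, B >20-50%, C <20%.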

Row | SMILES | DC50 (IRAK4 [1]) | OCI-LY10 % IRAK4 Degradation (0.01 uM) (IRAK4 [2]) | OCI-LY10 % IRAK4 Degradation (0.1 uM) (IRAK4 [2]) | OCI-LY10 % IRAK4 Degradation (1 uM) (IRAK4 [2])
1 | O=C1CCC(N2C(=O)c3ccc(NCCOCCN4CC5(CN(CCOCCNCc6ccc(-n7cc(NC(=O)c8coc(-c9ccnc(NCC%10CC%10)c9)n8)c(C(F)F)n7)cc6)C5)C4)cc3C2=O)C(=O)N1 (stereo not shown) [I-351] | 100 to 500 nM | C (<20% degradation) | C (<20% degradation) | A (>50% degradation)
2 | CN(CCCc1cccc2c1C(=O)N(C1CCC(=O)NC1=O)C2=O)Cc1ccc(-n2cc(NC(=O)c3coc(-c4ccnc(NCC(F)(F)F)c4)n3)c(C(F)F)n2)cc1 (stereo not shown) [I-360] | > 1000 nM | B (>20-50% degradation) | C (<20% degradation) | C (<20% degradation)
3 | O=C1CCC(N2C(=O)c3ccc(CCOCCN4CCC(n5cc(NC(=O)c6coc(-c7ccnc(NCC8CC8)c7)n6)c(C(F)F)n5)CC4)cc3C2=O)C(=O)N1 (stereo not shown) [I-262] | > 1000 nM | C (<20% degradation) | B (>20-50% degradation) | B (>20-50% degradation)
4 | CN(CCNCCCc1ccc2c(c1)C(=O)N(C1CCC(=O)NC1=O)C2=O)C(=O)c1ccc(-n2cc(NC(=O)c3coc(-c4ccnc(NCC5CC5)c4)n3)c(C(N)=O)n2)cc1 (stereo not shown) [I-397] | < 50 nM | B (>20-50% degradation) | A (>50% degradation) | A (>50% degradation)
5 | O=C1CCC(N2C(=O)c3ccc(NC4CCN(CCOCCOCCNC(=O)c5ccc(-n6cc(NC(=O)c7coc(-c8ccnc(NCC9CC9)c8)n7)c(C(F)F)n6)cc5)CC4)cc3C2=O)C(=O)N1 (stereo not shown) [I-270] | 100 to 500 nM | C (<20% degradation) | B (>20-50% degradation) | A (>50% degradation)
6 | O=C1CCC(N2C(=O)c3ccc(CCCOCCNCc4ccc(-n5cc(NC(=O)c6coc(-c7ccnc(NCC8CC8)c7)n6)c(C(F)F)n5)cc4)cc3C2=O)C(=O)N1 (stereo not shown) [I-381] | < 50 nM | B (>20-50% degradation) | A (>50% degradation) | A (>50% degradation)
7 | O=C1CCC(N2C(=O)c3cccc(CCCNC(=O)c4ccc(-n5cc(NC(=O)c6coc(-c7ccncc7)n6)c(C(F)F)n5)cc4)c3C2=O)C(=O)N1 (stereo not shown) [I-255] | > 1000 nM | C (<20% degradation) | C (<20% degradation) | C (<20% degradation)
8 | O=C1CCC(N2C(=O)c3ccc(NC4CCN(CCOCCOCCOCCNC(=O)c5ccc(-n6cc(NC(=O)c7coc(-c8ccnc(NCC9CC9)c8)n7)c(C(F)F)n6)cc5)CC4)cc3C2=O)C(=O)N1 (stereo not shown) [I-272] | 100 to 500 nM | C (<20% degradation) | B (>20-50% degradation) | A (>50% degradation)
9 | Cc1cc(-c2nc(C(=O)Nc3cn(-c4ccc(C(=O)NCCOCCOCCNc5cccc6c5C(=O)N(C5CCC(=O)NC5=O)C6=O)cc4)nc3C(N)=O)co2)ccn1 (stereo not shown) [I-241] | < 50 nM | B (>20-50% degradation) | A (>50% degradation) | A (>50% degradation)
10 | CN(CCOCCOCCCc1cccc2c1C(=O)N(C1CCC(=O)NC1=O)C2=O)C(=O)c1ccc(-n2cc(NC(=O)c3coc(-c4ccnc(NCC5CC5)c4)n3)c(C(N)=O)n2)cc1 (stereo not shown) [I-224] | < 50 nM | B (>20-50% degradation) | A (>50% degradation) | A (>50% degradation)
11 | O=C1CCC(N2C(=O)c3ccc(N4CCN(CCOCCOCCOCCNC(=O)c5ccc(-n6cc(NC(=O)c7coc(-c8ccnc(NCC9CC9)c8)n7)c(C(F)F)n6)cc5)CC4)cc3C2=O)C(=O)N1 (stereo not shown) [I-278] | 50 to 100 nM | C (<20% degradation) | B (>20-50% degradation) | A (>50% degradation)
12 | NC(=O)c1nn(-c2ccc(CNCCOCCOCCN3CCC(Nc4cccc5c4C(=O)N(C4CCC(=O)NC4=O)C5=O)CC3)cc2)cc1NC(=O)c1coc(-c2ccnc(NCC3CC3)c2)n1 (stereo not shown) [I-395] | > 1000 nM | C (<20% degradation) | B (>20-50% degradation) | B (>20-50% degradation)
13 | O=C1CCC(N2C(=O)c3ccc(N4CCN(CCOCCOCCNC(=O)c5ccc(-n6cc(NC(=O)c7coc(-c8ccnc(NCC9CC9)c8)n7)c(C(F)F)n6)cc5)CC4)cc3C2=O)C(=O)N1 (stereo not shown) [I-276] | 50 to 100 nM | C (<20% degradation) | B (>20-50% degradation) | A (>50% degradation)
14 | NC(=O)c1nn(-c2ccc(CNCCOCCOCCn3c(=O)n(C4CCC(=O)NC4=O)c4ccccc43)cc2)cc1NC(=O)c1coc(-c2ccnc(NCC3CC3)c2)n1 (stereo not shown) [I-319] | < 50 nM | B (>20-50% degradation) | A (>50% degradation) | A (>50% degradation)
15 | NC(=O)c1nn(-c2ccc(CNCC3CN(CCOCCNc4cccc5c4C(=O)N(C4CCC(=O)NC4=O)C5=O)CCO3)cc2)cc1NC(=O)c1coc(-c2ccnc(NCC(F)(F)F)c2)n1 (stereo not shown) [I-305, N-[3-carbamoyl-1-[4-[[[4-[2-[2-[[2-(2,6-dioxo-3-piperidyl)-1,3-dioxo-isoindolin-4-yl]amino]ethoxy]ethyl]morpholin-2-yl]methylamino]methyl]phenyl]pyrazol-4-yl]-2-[2-(2,2,2-trifluoroethylamino)-4-pyridyl]oxazole-4-carboxamide] | < 50 nM | A (>50% degradation) | A (>50% degradation) | A (>50% degradation)
16 | O=C1CCC(N2C(=O)c3cccc(NCCOCCOCCOCC(=O)N4C[C@H](O)C[C@H]4C(=O)NCc4ccc(-n5cc(NC(=O)c6coc(-c7ccnc(NCC8CC8)c7)n6)c(C(F)F)n5)cc4)c3C2=O)C(=O)N1 (stereo partly shown) [I-287] | > 1000 nM | C (<20% degradation) | C (<20% degradation) | B (>20-50% degradation)
17 | O=C1CCC(N2C(=O)c3cccc(NC4CCN(CCOCCOCCNC(=O)c5ccc(-n6cc(NC(=O)c7coc(-c8ccnc(NCC(F)(F)F)c8)n7)c(C(F)F)n6)cc5)CC4)c3C2=O)C(=O)N1 (stereo not shown) [I-283] | < 50 nM | A (>50% degradation) | A (>50% degradation) | A (>50% degradation)
18 | Cn1c(=O)n(C2CCC(=O)NC2=O)c2cccc(CCCOCCOCCNCc3ccc(-n4cc(NC(=O)c5coc(-c6ccnc(NCC7CC7)c6)n5)c(C(F)F)n4)cc3)c21 (stereo not shown) [I-332] | < 50 nM | A (>50% degradation) | A (>50% degradation) | A (>50% degradation)
19 | CC(=O)O[C@@H]1C[C@@H](C(=O)NCc2ccc(-n3cc(NC(=O)c4coc(-c5ccnc(NCC6CC6)c5)n4)c(C(F)F)n3)cc2)N(C(=O)COCCOCCOCCNc2cccc3c2C(=O)N(C2CCC(=O)NC2=O)C3=O)C1 (stereo partly shown) [I-288] | 50 to 100 nM | C (<20% degradation) | C (<20% degradation) | A (>50% degradation)
20 | CN(CCOCCOCCCc1ccc2c(c1)C(=O)N(C1CCC(=O)NC1=O)C2=O)C(=O)c1ccc(-n2cc(NC(=O)c3coc(-c4ccnc(NCC(F)(F)F)c4)n3)c(C(F)F)n2)cc1 (stereo not shown) [I-279] | 50 to 100 nM | C (<20% degradation) | A (>50% degradation) | A (>50% degradation)
21 | NC(=O)c1nn(-c2ccc(C(=O)NCCOCCOCCOCCOCCCc3cccc4c3C(=O)N(C3CCC(=O)NC3=O)C4=O)cc2)cc1NC(=O)c1coc(-c2ccnc(NCC(F)(F)F)c2)n1 (stereo not shown) [I-235] | 50 to 100 nM | C (<20% degradation) | A (>50% degradation) | A (>50% degradation)
22 | NC(=O)c1nn(-c2ccc(C(=O)NCCOCCOCCn3c(=O)n(C4CCC(=O)NC4=O)c4ccccc43)cc2)cc1NC(=O)c1coc(-c2ccnc(NCC(F)(F)F)c2)n1 (stereo not shown) [I-231] | < 50 nM | A (>50% degradation) | A (>50% degradation) | A (>50% degradation)
